# Values quoted from earlier work in patent publication US8071602B2, “Piperidine and piperazine derivatives” (M's Science Corporation, priority 2005, dated 2011).
# Test system: rats
# Details: microinjection
row,neck dystonia,Structure (SMILES)
1,induced neck dystonia,"Cc1ccccc1NC(=N)Nc1ccccc1C [DTG, 1,3-di-2-tolyl-guanidine]"
2,no effect,"COc1ccc(CCN2CCN(CCCc3ccccc3)CC2)cc1OC [SA-4503, 1-[2-(3,4-dimethoxyphenyl)ethyl]-4-(3-phenylpropyl)piperazine]"
